Results published in US5789595A, “Tetrahydroisoquinoline derivative and medical preparation containing the same” (Terumo Kabushiki Kaisha, priority 1994, dated 1998).
Where a name gives a salt, the structure may show the parent alone.

Key:
Format in all cases: cell-based
human platelet [1] = experiment: Thrombin-induced aggregation of human platelets (washed platelet suspension), inhibition; conditions: HEPES buffer pH 7.4, 2 mM CaCl2 and MgCl2, read-out: Inhibitory action for agglutination by thrombin IC50
Description: (§1) Inhibity effects on human platelet of the invention derivatives to evaluate the activity for inhibiting aggregation induced by ADP (adenosine diphosphate), thrombin, and fibrinogen were measured in accordance with the procedure as described below.
(§2) (1) Preparation of platelet-rich plasma, washed platelets, and α-chymotrypsin-treated platelets
(§3) Human whole blood withdrawn from human elbow vein into 10% volume of 3.8% sodium citrate was centrifuged at 135×g (1100 rpm) for 10 minutes, and the supernatant was collected as platelet-rich plasma (PRP). The residue was further centrifuged at 1600×g (3000 rpm) for 10 minutes, and the supernatant was collected as platelet-poor plasma (PPP). PRP and PPP were used for the measurement of the aggregation induced by ADP. In the meanwhile, PRP was applied to Sepharose CL-2B column (manufacture by Pharmacia) equilibrated with HEPES buffer, pH 7.4 containing 0.5% BSA and 5.5 mM glucose, and the fractions eluted in the void volume were collected as platelet-suspension, and used for the measurement of the aggregation induced by thrombin. In addition, washed platelet were treated with α-chymotrypsin of the final concentration of 10 U/ml for 30 minutes at room temperature. Then, the protease reaction was stopped by the addition of trypsin-chymotrypsin inhibitor (0.5 mg/ml), and α-chymotrypsin-treated platelet-suspension was used for the aggregation induced by fibrinogen.
(3) Measurement of thrombin-induced aggregation
The platelet-suspension was diluted with HEPES buffer, pH 7.4 to adjust the number of platelets to 20 to 30×1e4/μl, and calcium chloride and magnesium chloride were respectively added to 2 mM (final concentration). The aggregation induced by thrombin was measured with this platelet-suspension and HEPES buffer (contrast) by the same procedure as the measurement of the aggregation induced by the ADP. The concentration of 50% inhibition (IC50) was calculated from the proportion of the maximum aggregation with test solution to physiological saline.

human platelet [2] = experiment: ADP-induced aggregation of human platelets (platelet-rich plasma), inhibition; conditions: human PRP, 20 to 30×1e4 platelets/μl, 37° C., read-out: Inhibitory action for agglutination by ADP IC50
Description: Inhibity effects on human platelet of the invention derivatives to evaluate the activity for inhibiting aggregation induced by ADP (adenosine diphosphate), thrombin, and fibrinogen were measured in accordance with the procedure as described below. (1) Preparation of platelet-rich plasma, washed platelets, and α-chymotrypsin-treated platelets Human whole blood withdrawn from human elbow vein into 10% volume of 3.8% sodium citrate was centrifuged at 135×g (1100 rpm) for 10 minutes, and the supernatant was collected as platelet-rich plasma (PRP). The residue was further centrifuged at 1600×g (3000 rpm) for 10 minutes, and the supernatant was collected as platelet-poor plasma (PPP). PRP and PPP were used for the measurement of the aggregation induced by ADP. In the meanwhile, PRP was applied to Sepharose CL-2B column (manufacture by Pharmacia) equilibrated with HEPES buffer, pH 7.4 containing 0.5% BSA and 5.5 mM glucose, and the fractions eluted in the void volume were collected as platelet-suspension, and used for the measurement of the aggregation induced by thrombin. In addition, washed platelet were treated with α-chymotrypsin of the final concentration of 10 U/ml for 30 minutes at room temperature. Then, the protease reaction was stopped by the addition of trypsin-chymotrypsin inhibitor (0.5 mg/ml), and α-chymotrypsin-treated platelet-suspension was used for the aggregation induced by fibrinogen. (2) Measurement of ADP-induced aggregation PRP was diluted with PPP to adjust the number of platelets to 20 to 30×1e4/μl, and the aggregation induced by ADP was measured with aggligometer (HEMATRACER VI, manufactured by NBS). 0.2 ml of PRP was placed in the cubette of the aggligometer with 25 μl of the test solution or physiological saline (control), and was incubated at 37° C. for 5 minutes with stirring (1000 rpm). Then, 25 μl of ADP solution was added and the time course of the light transmittance was recorded. The transmittance of PRP and PPP were calibrated as 0 and 100% respectively, and the maximum transmittance after adding the agonist was taken for the maximum aggregation. The concentration of 50% inhibition (IC50) was calculated from the proportion of the maximum aggregation with test solution to physiological saline.

human platelet [3] = experiment: Fibrinogen-induced aggregation of α-chymotrypsin-treated human platelets, inhibition; conditions: fibrinogen (0.4 mg/ml), HEPES buffer pH 7.4, PGE1 1 μM, read-out: Inhibitory action for agglutination by fibrinogen IC50
Description: as §1, §2
as §3, with “In addition, washed platelet were treated with α-chymotrypsin of the final concentration of 10 U/ml for 30 minutes at room temperature. Then, the protease reaction was stopped by the addition of trypsin-chymotrypsin inhibitor (0.5 mg/ml), and α-chymotrypsin-treated platelet-suspension was used for the aggregation induced by fibrinogen.” left out
α-chymotrypsin-treated platelet-suspension was diluted with HEPES buffer, pH 7.4 to adjust the number of platelets to 20 to 30×1e4/μl. […] The aggregation induced by fibrinogen (0.4 mg/ml) was measured with this platelet-suspension and the HEPES buffer (contrast). […]

Row | SMILES | IC50 (human platelet [1]) | IC50 (human platelet [2]) | IC50 (human platelet [3])
1 | O=C(O)CN1CCc2ccc(NC(=O)COC3CCNCC3)cc2C1 [Ex. 1, 7-(piperidine-4-yloxyacetylamino)-2-carboxymethyl-1,2,3,4-tetrahydroisoquinoline] | 4.8 µM | 5 µM | –
2 | O=C(O)CCN1CCc2ccc(NC(=O)COC3CCNCC3)cc2C1 [Ex. 2, 7-(piperidine-4-yloxyacetylamino)-2-carboxyethyl-1,2,3,4-tetrahydroisoquinoline] | 0.066 µM | 0.097 µM | 0.038 µM
3 | O=C(O)CCCN1CCc2ccc(NC(=O)COC3CCNCC3)cc2C1 [Ex. 3, 7-(piperidine-4-yloxyacetylamino)-2-(3-carboxypropyl)-1,2,3,4-tetrahydroisoquinoline] | > 10 µM | > 10 µM | –
4 | CN(C(=O)COC1CCNCC1)c1ccc2c(c1)CN(CCC(=O)O)CC2 [Ex. 5, 7-[(piperidine-4-yloxyacetyl)methylamino]-2-[2-(carboxy)ethyl]-1,2,3,4-tetrahydroisoquinoline] | 43 µM | 81 µM | –
5 | O=C(O)CCN1CCc2ccc(NC(=O)COC3CCNCC3)cc2C1c1ccccc1 (centres unmarked) [Ex. 6, 2-(carbonylethyl)-1-phenyl-7-(piperidine-4-yloxyacetylamino)-1,2,3,4-tetrahydroisoquinoline] | 1.9 µM | 2.9 µM | –
6 | CC1CC(OCC(=O)Nc2ccc3c(c2)CN(CCC(=O)O)CC3)CC(C)N1 (centres unmarked) [Ex. 7, 7-(2,6-dimethylpiperidine-4-yloxyacetylamino)-2-(2-carboxyethyl)-1,2,3,4-tetrahydroisoquinoline] | – | > 10 µM | –
7 | CC1CNCCC1OCC(=O)Nc1ccc2c(c1)CN(CCC(=O)O)CC2 (centres unmarked) [Ex. 8, 7-(3-methylpiperidine-4-yloxyacetylamino)-2-(2-carboxyethyl)-1,2,3,4-tetrahydroisoquinoline] | – | 0.23 µM | –
8 | CC(CC(=O)O)N1CCc2ccc(NC(=O)COC3CCNCC3)cc2C1 (centres unmarked) [Ex. 9, 7-(piperidine-4-yloxyacetylamino)-2-(2-carboxy-1-methylethyl)-1,2,3,4-tetrahydroisoquinoline] | – | 0.32 µM | –
9 | CC1c2cc(NC(=O)COC3CCNCC3)ccc2CCN1CCC(=O)O (centres unmarked) [Ex. 10, 2-(2-carboxyethyl)-1-methyl-7-(piperidine-4-yloxyacetylamino)-1,2,3,4-tetrahydroisoquinoline hydrochloride] | – | 0.38 µM | –
10 | CC1CN(CCC(=O)O)Cc2cc(NC(=O)COC3CCNCC3)ccc21 (centres unmarked) [Ex. 11, 2-(2-carboxyethyl)-4-methyl-7-(piperidine-4-yloxyacetylamino)-1,2,3,4-tetrahydroisoquinoline hydrochloride] | – | 0.15 µM | –
11 | CC1(C)Cc2ccc(NC(=O)COC3CCNCC3)cc2CN1CCC(=O)O [Ex. 12, 2-(2-carboxyethyl)-3,3-dimethyl-7-(piperidine-4-yloxyacetylamino)-1,2,3,4-tetrahydroisoquinoline hydrochloride] | – | 12 µM | –
